# According to patent publication US20170176412A1, “METHOD FOR PREDICTING OPTION OF DEPRESSION TREATMENT DRUG” (Human Metabolome Technologies Inc., priority 2014, published 2017):
# Key:
# [1] = test system: blood PEA level of depressed patient; test: Blood PEA level of depressed patients before and after administration of SNRI or SSRI (Example 1); type: in vivo; details: average value; for Blood PEA level After administration: after administration period of about 0.5 to 7 months; for Blood PEA level Before administration: baseline of the drug group, plasma, ion chromatography fluorescent detection
# Experimental: After an informed consent was given to a patient who visited the clinic of the inventors, the patient's blood was collected. The blood PEA level was measured using an ion chromatography fluorescent detection method according to the following procedure. 50 μL of plasma and 450 μL of Milli-Q water were put in an Eppendorf tube and mixed by vortexing. The mixture was transferred to an ultrafiltration filter ([…] 5 kDa cut filter, Millipore Corporation), and subjected to centrifugal filtration (4° C., 9,100×g, 2 hours) until the solution in the filter disappeared. […] As subjects, 30 patients having the blood PEA levels ranging from 0.77 to 2.62 μM were employed. As a depression treatment drug, the SSRI or SNRT shown in Table 3 was administered to the patients. The blood PEA level after the administration was measured in the same procedure as before the administration. Although the administration periods variably depended on the patients, they ranged from about 0.5 to 7 months.
# [2] = test system: blood PEA level of depressed patient; test: Blood PEA level of depressed patients during continuous administration (Example 2); type: in vivo; details: for Blood PEA level Before administration: before administration in Example 1, patients with continuous administration; for Blood PEA level After continuous administration / Blood PEA level During continuous administration: continuous administration periods about 6 to 24 months
# Experimental: Among the patients to whom the depression treatment drug was administered in Example 1, the patients who received continuous administration also after the period of Example 1 were investigated. The number of patients who received continuous administration of the SNRI was nine. On the other hand, the number of patients who received continuous administration of the SSRI was five. Although the continuous administration periods (including the administration period in Example 1) variably depended on the patients, they ranged from about 6 to 24 months. The blood PEA levels in the course of and after the end of the continuous administration of these patients were measured in the same procedure as in Example 1.
# • t-test: Significant difference test of blood PEA level after continuous administration with respect to that before administration
Compound,Blood PEA level After administration [1] [µM],Blood PEA level Before administration [1] [µM],Blood PEA level Before administration [2] [µM],Blood PEA level After continuous administration [2] [µM],Blood PEA level During continuous administration [2] [µM]
"CNCC[C@H](Oc1cccc2ccccc12)c1cccs1 [Duloxetine, duloxetine]",1.46,1.10,1.11,1.82,1.47
"CN(C)CCC[C@@]1(c2ccc(F)cc2)OCc2cc(C#N)ccc21 [Escitalopram, escitalopram]",1.22,–,–,1.73,–
"CCN(CC)C(=O)C1(c2ccccc2)CC1CN (stereo not drawn) [Milnacipran, milnacipran]",1.66,1.27,1.44,1.94,1.71
"Fc1ccc([C@@H]2CCNC[C@H]2COc2ccc3c(c2)OCO3)cc1 [Paroxetine, paroxetine]",1.21,1.42,–,–,–
"CN[C@H]1CC[C@@H](c2ccc(Cl)c(Cl)c2)c2ccccc21 [Sertraline, sertraline]",1.26,1.39,1.39,1.47,–
